# Experimental data as given in patent publication US20040086901A1, “Database for analyzing gene function and method of analyzing gene function by dspa” (priority 2000, published 2004).
# Columns and labels:
# Type in all cases: cell-based, mouse
# [1] = test system: NIH3T3 cells overexpressing Bax; assay: MTT cell viability, Bax overexpressing cells vs parental line; conditions: 3 to 4 days
# How it was run: (§1)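 Each full-length cDNA is expressed from a CMV vector in NIH3T3 cells, and a high-expressing clone is compared with the parental line. Viability is measured by MTT after 3–4 days with graded drug concentrations, and the log IC40 ratio is reported.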
# [2] = test system: NIH3T3 cells overexpressing Ki-ras; assay: MTT cell viability, Ki-ras overexpressing cells vs parental line; conditions: Ki-ras high-expressing cells / parental cell line, 3 to 4 days
# How it was run: (§2)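 Stable NIH3T3 transfectants (cDNA in pRc-CMV-type vector, G-418-selected, high expressers picked by Western blot) and parental cells were seeded at 1×10^5 cells/ml into twofold serial drug dilutions and grown 3–4 days. MTT formazan was read at 574/655 nm, and log ratios of IC40 values were derived.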
# [3] = test system: NIH3T3 cells overexpressing C/EBPb; assay: MTT cell viability, C/EBPb overexpressing cells vs parental line; conditions: C/EBPb high-expressing cells / parental cell line, 3 to 4 days
# How it was run: as §1
# [4] = test system: NIH3T3 cells overexpressing caspase-3; assay: MTT cell viability, caspase-3 overexpressing cells vs parental line; conditions: caspase-3 high-expressing cells / parental cell line, 3 to 4 days
# How it was run: as §1
# [5] = test system: NIH3T3 cells overexpressing calpastatin; assay: MTT cell viability, calpastatin overexpressing cells vs parental line; conditions: calpastatin high-expressing cells / parental cell line, 3 to 4 days
# How it was run: as §2
# [6] = test system: NIH3T3 cells overexpressing PDGF-R-Del; assay: MTT cell viability, PDGF-R-Del overexpressing cells vs parental line; conditions: PDGF-R-Del high-expressing cells / parental cell line, 3 to 4 days
# How it was run: as §2
# [7] = test system: NIH3T3 cells overexpressing caspase-2; assay: MTT cell viability, caspase-2 overexpressing cells vs parental line; conditions: caspase-2 high-expressing cells / parental cell line, 3 to 4 days
# How it was run: as §2
# [8] = test system: NIH3T3 cells overexpressing STAT1; assay: MTT cell viability, STAT1 overexpressing cells vs parental line; conditions: STAT1 high-expressing cells / parental cell line, 3 to 4 days
# How it was run: as §1
# [9] = test system: NIH3T3 cells overexpressing p16/INK4A; assay: MTT cell viability, p16/INK4A overexpressing cells vs parental line; conditions: p16/INK4A high-expressing cells / parental cell line, 3 to 4 days
# How it was run: as §2
# [10] = test system: NIH3T3 cells overexpressing C/EBPa; assay: MTT cell viability, C/EBPa overexpressing cells vs parental line; conditions: C/EBPa high-expressing cells / parental cell line, 3 to 4 days
# How it was run: as §1
# [11] = test system: NIH3T3 cells overexpressing coup; assay: MTT cell viability, coup overexpressing cells vs parental line; conditions: coup high-expressing cells / parental cell line, 3 to 4 days
# How it was run: as §2
# [12] = test system: NIH3T3 cells overexpressing TK; assay: MTT cell viability, TK overexpressing cells vs parental line; conditions: TK high-expressing cells / parental cell line, 3 to 4 days
# How it was run: as §2
# [13] = test system: NIH3T3 cells overexpressing N-ras; assay: MTT cell viability, N-ras overexpressing cells vs parental line; conditions: N-ras high-expressing cells / parental cell line, 3 to 4 days
# How it was run: as §2
# [14] = test system: NIH3T3 cells overexpressing JNK-DN; assay: MTT cell viability, JNK-DN overexpressing cells vs parental line; conditions: JNK-DN high-expressing cells / parental cell line, 3 to 4 days
# How it was run: as §2
# [15] = test system: NIH3T3 cells overexpressing Regucalcin; assay: MTT cell viability, Regucalcin overexpressing cells vs parental line; conditions: Regucalcin high-expressing cells / parental cell line, 3 to 4 days
# How it was run: as §2
# [16] = test system: NIH3T3 cells overexpressing HSP9O; assay: MTT cell viability, HSP9O overexpressing cells vs parental line; conditions: HSP9O high-expressing cells / parental cell line, 3 to 4 days
# How it was run: as §2
# [17] = test system: NIH3T3 cells overexpressing p33/ING1; assay: MTT cell viability, p33/ING1 overexpressing cells vs parental line; conditions: p33/ING1 high-expressing cells / parental cell line, 3 to 4 days
# How it was run: as §2
# [18] = test system: NIH3T3 cells overexpressing p53(wt); assay: MTT cell viability, p53(wt) overexpressing cells vs parental line; conditions: p53(wt) high-expressing cells / parental cell line, 3 to 4 days
# How it was run: as §1
# [19] = test system: NIH3T3 cells overexpressing Ha-ras; assay: MTT cell viability, drug sensitivity of Ha-ras overexpressing cells vs parental line; conditions: Ha-ras high-expressing cells / parental cell line, 3 to 4 days
# How it was run: as §1
# [20] = test system: NIH3T3 cells overexpressing cystatin alpha; assay: MTT cell viability, cystatin alpha overexpressing cells vs parental line; conditions: cystatin alpha high-expressing cells / parental cell line, 3 to 4 days
# How it was run: as §2
# [21] = Bax (first of two Bax lines) high-expressing cells / parental cell line
# [22] = Bax (second of two Bax lines) high-expressing cells / parental cell line
SMILES,"logarithmic value of ratio of IC40 values [1, 21]","logarithmic value of ratio of IC40 values [1, 22]",logarithmic value of ratio of IC40 values [2],logarithmic value of ratio of IC40 values [3],logarithmic value of ratio of IC40 values [4],logarithmic value of ratio of IC40 values [5],logarithmic value of ratio of IC40 values [6],logarithmic value of ratio of IC40 values [7],logarithmic value of ratio of IC40 values [8],logarithmic value of ratio of IC40 values [9],logarithmic value of ratio of IC40 values [10],logarithmic value of ratio of IC40 values [11],logarithmic value of ratio of IC40 values [12],logarithmic value of ratio of IC40 values [13],logarithmic value of ratio of IC40 values [14],logarithmic value of ratio of IC40 values [15],logarithmic value of ratio of IC40 values [16],logarithmic value of ratio of IC40 values [17],logarithmic value of ratio of IC40 values [18],logarithmic value of ratio of IC40 values [19],also measured
CC(=O)OCOC(=O)CN(CC(=O)OCOC(C)=O)c1ccccc1OCCOc1ccccc1N(CC(=O)OCOC(C)=O)CC(=O)OCOC(C)=O [BAPTA-AM],0.15,0.00,−0.15,0.81,0.60,0,0.31,0.23,0.10,0.20,−0.62,0.09,0.00,0.00,0.06,−0.39,0.60,0.00,0.00,−0.20,logarithmic value of ratio of IC40 values [20]: 0.34
"C=C1[C@@H](O)[C@@H]2O[C@]3(CC[C@H](/C=C/[C@@H](C)[C@@H]4CC(C)=C[C@@]5(O[C@H](C[C@@](C)(O)C(=O)O)CC[C@H]5O)O4)O3)CC[C@H]2O[C@@H]1[C@@H](O)C[C@H](C)[C@H]1O[C@@]2(CCCCO2)CC[C@H]1C [OA, okadaic acid]",0.00,0.00,0.04,0.21,0.00,−0.04,0.21,0.06,0.14,0.06,0.12,0.00,0.00,0.00,−0.07,−0.10,0.07,0.11,−0.05,0.11,logarithmic value of ratio of IC40 values [20]: 0.08
